Results: patent US20150094328A1, “4-Azaindole Derivatives” (Eisai R&D Management Co., Ltd., priority 2013, published 2015)

Target: T1, mAChR M1 (UniProt P11229)
T1 sequence (P11229 1-460): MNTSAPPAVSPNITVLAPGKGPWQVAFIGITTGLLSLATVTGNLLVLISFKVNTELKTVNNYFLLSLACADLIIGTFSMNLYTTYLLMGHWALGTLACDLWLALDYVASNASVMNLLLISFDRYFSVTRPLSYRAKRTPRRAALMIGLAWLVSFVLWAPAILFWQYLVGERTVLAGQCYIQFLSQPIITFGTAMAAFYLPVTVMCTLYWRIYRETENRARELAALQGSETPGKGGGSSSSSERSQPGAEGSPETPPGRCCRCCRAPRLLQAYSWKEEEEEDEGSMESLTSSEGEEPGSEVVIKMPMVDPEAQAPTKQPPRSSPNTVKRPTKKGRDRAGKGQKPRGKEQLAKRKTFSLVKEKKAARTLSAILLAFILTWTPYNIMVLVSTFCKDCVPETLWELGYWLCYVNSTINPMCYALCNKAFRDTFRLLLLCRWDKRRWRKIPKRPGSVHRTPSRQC
Assay: In vitro cellular calcium flux assay, positive allosteric modulator mode, mAChR M1
Type: cell-based, human
Details: PAM mode with EC20 carbachol, BHK cells expressing mAChR M1, Examples 76-80 and 82-89 tested in slightly modified procedure
Experimental: Baby hamster kidney cells stably expressing human or rat mAChR M1 to M5 were utilised for primary and selectivity profiling activities. mAChR M2 and M4 cell lines also stably expressed the chimeric Gαqi5 G-protein.
Human mAChR M1, M3, M5 and rat M1 cells were grown in low glucose Dulbecco's Modified Eagle's Medium (DMEM) medium plus heat inactivated 10% fetal bovine serum (HI FBS) and 500 μg/ml hygromycin B^1. Human mAChR M2 and M4 cells were maintained as above with^2 the addition of 500 μg/ml G418 to the media. Cells were maintained in culture at 37° C./5% CO2 and passaged twice weekly by treatment with 0.05% Trypsin/EDTA detachment solution, centrifugation (200 g, 5 min) and re-suspension in fresh media. Following cell expansion, cells were cryopreserved at −80° C. by treatment with 0.05% Trypsin/EDTA detachment solution, centrifugation (200 g, 5 min) and re-suspension of the pellet in freezing media (90% HI FBS/10% DMSO^3) at 15E6 cells/ml^4.
Prior to assaying, cells were prepared by thawing at 37° C. in a water bath, centrifugation (200 g, 5 min) and re-suspension of the pellet in fresh media. 15000 cells per well were seeded in black, clear bottomed 384-well Greiner Bio-One plates in plating medium (DMEM/10% HI FBS) and incubated overnight at 37C/5% CO2.
On the day of the assay, media was removed from each well and replaced with 500 assay buffer (HBSS with 20 mM HEPES and 2.5 mM Probenecid) containing the calcium indicator, Calcium 4 (Molecular Devices). Cells were then incubated at 37° C./5% CO2 for 30 min and at room temperature.
Compound preparation was carried out by generation of 11-point, 1 in 3 serial dilution concentration response curves in 100% DMSO. Compound was then diluted 1 in 65^6 with assay buffer (HBSS with 20 mM HEPES and 2.5 mM Probenecid) prior to the addition of 10 ul^7 to the cells using a Tetra fluorometric imaging plate reader (Molecular Devices)^8. Compound driven increases in intracellular calcium flux was measured as an increase in fluorescence (494Ex, 516Em)^9.
Following agonist data acquisition, cells were then incubated for a further 30 min at room temperature before either an EC20 concentration (to measure positive allosteric modulator activity) or an EC80 concentration (to measure antagonism) of carbachol was added using a fluorometric imaging plate reader. Positive allosteric modulator pEC50 values and antagonist pIC50 values for each compound were then determined. […] Data analysis was carried out using a 4 parameter logistic nonlinear regression model with the XLFIT (IDBS) excel add-in^10.
^1-10Examples 76-80 and 82-89 were tested in a slightly modified procedure. The points of modification and the alternate reagents, concentrations or equipment employed in these examples were: ^1200 μg/ml hygromycin B; ^2G418 not added; ^3CELLBANKER 1; ^410E6; ^540 μl; ^61 in 99; ^720 μl; ^8FDSS6000 (Hamamatsu Photonics); ^9(480Ex, 540Em); 10Spotfire (TIBCO).

| Compound | pEC50 for positive allosteric modulation |
| --- | --- |
| Cc1ccnc2c(C(=O)N[C@H]3CCOC[C@@H]3O)cn(Cc3ccc(F)cc3)c12 (single isomer, unassigned) [Example 82, 1-(4-Fluorobenzyl)-N-(trans-3-hydroxytetrahydro-2H-pyran-4-yl)-7-methyl-1H-pyrrolo[3,2-b]pyridine-3-carboxamide] | 7.8 |
| O=C(N[C@H]1CCCC[C@@H]1O)c1cn(Cc2ccc(F)c(F)c2)c2cccnc12 [Example 94, 1-(3,4-difluorobenzyl)-N-((1S,2S)-2-hydroxycyclohexyl)-1H-pyrrolo[3,2-b]pyridine-3-carboxamide] | 6.6 |
| O=C(N[C@H]1CCC[C@@H]1O)c1cn(Cc2ccc(F)cc2)c2cccnc12 (racemic) [Example 27, 1-(4-Fluorobenzyl)-N-(trans-2-hydroxycyclopentyl)-1H-pyrrolo[3,2-b]pyridine-3-carboxamide] | 6.1 |
| O=C(N[C@H]1CCC(F)(F)C[C@H]1O)c1cn(Cc2ccc(F)cc2)c2cccnc12 (single isomer, unassigned) [Example 36, N-(cis-4,4-Difluoro-2-hydroxycyclohexyl)-1-(4-fluorobenzyl)-1H-pyrrolo[3,2-b]pyridine-3-carboxamide] | 6.3 |
| C[C@H]1CCCC[C@@H]1NC(=O)c1cn(Cc2ccc(F)cc2)c2cccnc12 (racemic) [Example 20, 1-(4-Fluorobenzyl)-N-(trans-2-methylcyclohexyl)-1H-pyrrolo[3,2-b]pyridine-3-carboxamide] | 6.1 |
| N#Cc1ccc(Cn2cc(C(=O)N[C@H]3CCCC[C@@H]3O)c3nccc(Cl)c32)cn1 [Example 70, 7-Chloro-1-((6-cyanopyridin-3-yl)methyl)-N-((1S,2S)-2-hydroxycyclohexyl)-1H-pyrrolo[3,2-b]pyridine-3-carboxamide] | 7.0 |
| O=C(N[C@H]1CCCCC[C@@H]1O)c1cn(Cc2ccc(F)cc2)c2cccnc12 (racemic) [Example 28, 1-(4-Fluorobenzyl)-N-(trans-2-hydroxycycloheptyl)-1H-pyrrolo[3,2-b]pyridine-3-carboxamide] | 6.6 |
| O=C(N[C@@H]1CCOC[C@H]1O)c1cn(Cc2cccc(F)c2)c2c(Cl)ccnc12 (single isomer, unassigned) [Example 86, 7-Chloro-1-(3-fluorobenzyl)-N-(trans-3-hydroxytetrahydro-2H-pyran-4-yl)-1H-pyrrolo[3,2-b]pyridine-3-carboxamide] | 7.6 |
| COc1ccc(Cn2cc(C(=O)N[C@H]3CCOC[C@@H]3O)c3nccc(C)c32)cc1F (single isomer, unassigned) [Example 84, 1-(3-Fluoro-4-methoxybenzyl)-N-(trans-3-hydroxytetrahydro-2H-pyran-4-yl)-7-methyl-1H-pyrrolo[3,2-b]pyridine-3-carboxamide] | 7.9 |
| N#Cc1ccnc2c(C(=O)N[C@H]3CCCC[C@@H]3O)cn(Cc3ccc(C(F)(F)F)cc3)c12 [Example 33, 7-Cyano-N-((1S,2S)-2-hydroxycyclohexyl)-1-(4-(trifluoromethyl)benzyl)-1H-pyrrolo[3,2-b]pyridine-3-carboxamide] | 7.0 |
| Cn1cnc(-c2ccc(Cn3cc(C(=O)N[C@H]4CCCC[C@@H]4O)c4ncccc43)cc2)c1 [Example 43, N-((1S,2S)-2-Hydroxycyclohexyl)-1-(4-(1-methyl-1H-imidazol-4-yl)benzyl)-1H-pyrrolo[3,2-b]pyridine-3-carboxamide] | 8.0 |
| N#Cc1ccc2c(n1)c(C(=O)N[C@H]1CCCC[C@@H]1O)cn2Cc1ccc(-n2cccn2)cc1 [Example 41, 1-(4-(1H-Pyrazol-1-yl)benzyl)-5-cyano-N-((1S,2S)-2-hydroxycyclohexyl)-1H-pyrrolo[3,2-b]pyridine-3-carboxamide] | 6.5 |
| O=C(N[C@@H]1CCCC[C@H]1O)c1cn(Cc2ccc(-c3ccc(F)cc3)cc2)c2cccnc12 (racemic) [Example 46, 1-((4′-Fluoro-[1,1′-biphenyl]-4-yl)methyl)-N-(trans-2-hydroxycyclohexyl)-1H-pyrrolo[3,2-b]pyridine-3-carboxamide] | 6.5 |
| O=C(N[C@H]1CCCC[C@@H]1CO)c1cn(Cc2ccc(F)cc2)c2cccnc12 (racemic) [Example 18, 1-(4-Fluorobenzyl)-N-(trans-2-(hydroxymethyl)cyclohexyl)-1H-pyrrolo[3,2-b]pyridine-3-carboxamide] | 6.1 |
| COc1ccc(Cn2cc(C(=O)N[C@H]3CCOC[C@@H]3O)c3nccc(Cl)c32)cc1 (single isomer, unassigned) [Example 87, 7-Chloro-1-(4-methoxybenzyl)-N-(trans-3-hydroxytetrahydro-2H-pyran-4-yl)-1H-pyrrolo[3,2-b]pyridine-3-carboxamide] | 7.9 |
| C[C@H]1COCC[C@@H]1NC(=O)c1cn(Cc2ccc(F)cc2)c2cccnc12 (racemic) [Example 19, 1-(4-Fluorobenzyl)-N-(trans-3-methyltetrahydro-2H-pyran-4-yl)-1H-pyrrolo[3,2-b]pyridine-3-carboxamide] | 6.0 |
| O=C(N[C@@H]1CCC(F)(F)C[C@H]1O)c1cn(Cc2ccc(F)cc2)c2cccnc12 (single isomer, unassigned) [Example 35, N-(trans-4,4-Difluoro-2-hydroxycyclohexyl)-1-(4-fluorobenzyl)-1H-pyrrolo[3,2-b]pyridine-3-carboxamide] | 6.1 |
| O=C(NC1CCCOC1)c1cn(Cc2ccc(-n3cccn3)cc2)c2cccnc12 (racemic) [Example 49, 1-(4-(1H-Pyrazol-1-yl)benzyl)-N-(tetrahydro-2H-pyran-3-yl)-1H-pyrrolo[3,2-b]pyridine-3-carboxamide] | 5.6 |
| COc1ccc(Cn2cc(C(=O)N[C@H]3CCOC[C@@H]3O)c3nccc(C)c32)cc1 (single isomer, unassigned) [Example 83, 1-(4-Methoxybenzyl)-N-(trans-3-hydroxytetrahydro-2H-pyran-4-yl)-7-methyl-1H-pyrrolo[3,2-b]pyridine-3-carboxamide] | 8.0 |
| COc1cc(Cn2cc(C(=O)N[C@H]3CCOC[C@@H]3O)c3nccc(C)c32)ccn1 (single isomer, unassigned) [Example 85, N-(trans-3-Hydroxytetrahydro-2H-pyran-4-yl)-1-((2-methoxypyridin-4-yl)methyl)-7-methyl-1H-pyrrolo[3,2-b]pyridine-3-carboxamide] | 7.3 |
